The source of these data is patent US20180030537A1, “PUMA, A PRO-APOPTOTIC GENE, AS A NOVEL MOLECULAR BIOMARKER FOR TNFALPHA-INDUCED HUMAN ISLET DAMAGE” (CITY OF HOPE, priority 2010, published 2018).

The subject of assay [1] is human islets. In words: IL-1β stimulation of single human islets, mRNA by RT-PCR. It is filed as cell-based. The note with it: recombinant IL-1β up to 100 U/mL, up to 16 hours, n=1. As to the method:
FIGS. 16A-D. IL-1β up-regulates PUMA mRNA in human islets. Single islets in sextuplicate were stimulated with or without recombinant IL-1β (0.10 and 100 U/mL) for up to 16 hours. FIG. 16A) PUMA, FIG. 16B) IL-8, FIG. 16C) endogenous IL-1B and FIG. 16D) endogenous TNF mRNA in islets were normalized by β actin (% ACTB) mRNA assessed by RT-PCR (n=1). IL-1β induced PUMA, IL-8, endogenous IL-1 and TNF in human islets.
In addition to TNF-α, the expression of PUMA was examined following stimulation with […]. […] alone stimulation induced PUMA, IL-8, TNF and IL1B mRNA within 4 hours. […] IL-1β-induced PUMA expression can also be explained through the NFκB pathway.

The test system of assay [2] is human islets. In words: Drug compound screening in single human islets: TNF-α induced PUMA, IL-8 and TNF mRNA. The note with it: pre-incubation 1 hour, 10 μM (Etanercept 0.1 μg/mL), then 5 ng/mL TNF-α 4 hours, vs control (vehicle alone); for TNF-α induced up regulation of PUMA mRNA (% ACTB): FIG. 4A; for TNF-α induced up regulation of IL-8 mRNA (% ACTB): FIG. 4B; for TNF-α induced up regulation of endogenous TNF mRNA (% ACTB): FIG. 4C. It is filed as cell-based. As to the method:
FIGS. 4A-C. PUMA, IL-8 and TNF-α are used as markers to screen drug compounds protecting islets from TNF-α stimulus. Single human islets in hextuplicate were pre-incubated with various drugs (all used at 10 μM except Etanercept (0.1μ/ml)) or solvent (DMSO) at 37° C. for 1 hour, followed by stimulation with or without 5 ng/ml of TNF-α for an additional 4 hours. FIG. 4A: PUMA and ACTB mRNA were quantified and the results are expressed as % ACTB (*p<0.05 vs. control islets with TNF-α). FIG. 4B: IL-8 was quantified and the results are expressed as % ACTB. FIG. 4C: Endogenous TNF-α was quantified and the results are expressed as % ACTB. Together, the results of FIGS. 4A-C show an example of a compound screening system using PUMA, IL-8 and TNF mRNA.
Human islets and acinar cells isolated for research use were obtained from the Southern California Islet Cell Resources (SC-ICR) Center, Beckman Research Institute of the City of Hope (Duarte, Calif.) 1 to 3 days after isolation. The donor age ranged from 18 to 67 (48±14) years and included both sexes. Islet preparations with >70% purity and >90% viability were used. The use of human islets and acinar cells in this study was approved by the Institutional Review Board of the City of Hope. For mRNA experiments, islets between 150 μm to 300 μm in diameter (medium size islet) were handpicked in hexuplicate by experienced personnel under a dissection microscope without staining. Each handpicked islet was cultured individually in a non-tissue culture treated 96 well plate (Sarstedt, Newton, N.C.) with a CMRL (Mediatech Inc., Holly Hill, Fla.) based serum-free medium, which is used to culture human islets for clinical transplantation. Islets were treated with or without recombinant human TNF-α (0, 1, 5, 50 ng/mL) and/or recombinant human IFNγ (0, 10, 100, 1000 U/mL) for up to 16 hours. For other islet experiments, 500 to 1000 islet equivalent (IEQ) were cultured (500 IEQ/mL of medium) in a Petri dish for up to 24 hours in the same condition described above unless otherwise specified. For acinar cell experiments, acinar cells were kept in islet culture medium at 4° C. immediately after the isolation and used within 24 hours. Aliquots of 5-10 acinar cell clusters in triplicates were cultured with islet culture medium with or without TNF-α for up to 16 hours. For drug compound screening experiments, islets were pre-incubated with Etanercept, FK506, Cyclosporine (CsA), Rapamycin, Imatinib mesylate, Janus Kinase (JAK) inhibitor or p38 inhibitor, SB203580, for 1 hour, and then 5 ng/mL TNF-α was added to the islet culture for 4 hours. All the compounds except Etanercept (0.1 μg/mL) were dissolved in dimethyl sulfoxide (DMSO) and used at a concentration of 10 μM (all compounds are gifts from Hitachi Chemical Research Center).
RNA purification and PCR was performed as described previously (32). Briefly, following culture, islets were transferred to a 96-well filter plate (Hitachi Chemical Research Center-HCR, Irvine, Calif.)(44) and 50 μL of Lysis Buffer (HCR) containing a cocktail of specific reverse primers was applied to each well. Poly(A)+mRNA isolation was performed using the Hem(A)+™ System (Hitachi Chemical Research Center, Irvine, Calif.). The resultant cell lysates were transferred to oligo(dT)-immobilized microplates (GenePlate, HCR) for poly(A)^+ mRNA purification (45). The cDNA was directly synthesized with 30 μL of solution in each well: specific primer-primed cDNA in the liquid phase and oligo(dT)-primed cDNA in the solid phase (44). The cDNA in the solution was diluted by adding 30 μL nuclease-free water, with 4 μL of the diluted cDNA used for SYBR Green PCR (BioRad, Hercules, Calif.) (46). Each gene was amplified individually. The cycle threshold (Ct) was determined using analytical software (SDS, Applied Biosystems, Foster City, Calif.). Differences in Ct between the target and control mRNA (ΔCt) are used to quantify the relative amount of each target, calculated as 2^−ΔCt. […]

For assay [3] the following is noted: children with new onset of T1DM; cited from earlier work.
Assay [4] has as its system human islets. In words: Western blot of PUMA and phospho-p65 in cultured human islets. In kind it is cell-based. The method, then: All data are presented as a mean±standard error.
In some experiments, islets were pre-incubated with 10 μM NFκB inhibitor; BAY11-7082 for 1 hour before cytokine stimulation. Islet cell lysis and western blot was performed as previously described (49).

The subject of the next assay is islets. The note with it: in vitro; cited from earlier work.
The test system of another assay is NOD mice. The note with it: cited from earlier work.
Assay [5] deals with human islets. In words: Preproinsulin precursor mRNA synthesis and total insulin release of single human islets. In kind it is cell-based. The note with it: 16 hours, high glucose; TNF-α 50 ng/mL; IFNγ 10-1000 U/ml; FIG. 3B, 3C.
Method: FIG. 3B) The glucose induced newly synthesized preproinsulin precursor mRNA measured by pre-spliced preproinsulin mRNA normalized by pre- and post-spliced preproinsulin mRNA (% exon) in the corresponding islets with or without 50 ng/ml. TNF-α was also examined (n=3, *p<0.05). FIG. 3C) Glucose induced preproinsululin precursor mRNA synthesis with or without TNF-α (1, 5 and 50 ng/ml) and/or IFNγ (10, 100 and 1000 U/ml) from a single human islet in hextuplicate. […] All data are presented as a mean±standard error.
Hand picked human islets were cultured with 100 uL of RPMI 1640 medium containing 5% fetal bovine serum and either low-glucose (3.3 mmol/L) or high-glucose (17 mmol/L) for 16 hours. Preproinsulin mRNA synthesis was measured from the islets by the methods described above. Pre-spliced preproinsulin mRNA (preproinsulin precursor mRNA) was normalized by pre- and post-spliced preproinsulin mRNA as described previously (32).
The effect of TNF-α and/or IFN-γ on β cell function was examined by analyzing the ability of human islets to synthesize and release insulin. […] The dose dependent effect of TNF-α and/or IFN-γ on preproinsulin precursor mRNA synthesis was also examined.
The test system of assay [6] is human islets. In words: Cytokine stimulation of single human islets, mRNA quantification. The note with it: TNF-α 1, 5, 50 ng/ml and/or IFNγ 10, 100, 1000 U/ml. It is filed as cell-based.
Method: Single islets were stimulated with or without 50 ng/ml TNF-α for 16 hours. Each dot indicates the result of one islet lot tested in hextuplicate. The tests were performed using 4 different human islet lots. Bars indicate the mean of 4 lots. Each gene expression was normalized by ACTB (a gene encoding β actin), and the fold increase was calculated by dividing TNF-α treated islets by control islets (*p<0.01, n=4). […] FIGS. 8B-D) PUMA (FIG. 8B), IL-8 (FIG. 8C) and TNF-α (FIG. 8D) expression from single human islets (n=6) stimulated with 0 (open circles), 1 (solid triangles), 5 (solid squares) and 50 ng/ml (solid circles) TNF-α for 0, 1, 4, 16 hours in 3 independent cases. Dose dependent expression of (FIG. 8E) PUMA, (FIG. 8F) IL-8 and (FIG. 8G) TNF-α in human islet at the 4 hour time point (n=3). […] (FIG. 8K) PUMA and (FIG. 8L) IL-8 expression in human islets stimulated with or without TNF-α (1, 5, 50 ng/ml) and/or IFNγ (10, 100, 1000 U/ml) for 4 hours. […] All data are presented as a mean±standard error.
Human islets and acinar cells isolated for research use were obtained from the Southern California Islet Cell Resources (SC-ICR) Center, Beckman Research Institute of the City of Hope (Duarte, Calif.) 1 to 3 days after isolation. The donor age ranged from 18 to 67 (48±14) years and included both sexes. Islet preparations with >70% purity and >90% viability were used. […]

“Also recorded” adds a separate entry of the source.

As to “IL-1β: recombinant IL-1β; cytokine stimulus”, the “PUMA mRNA (% ACTB) in human islets” value with human islets [1] (FIG. 16A) is listed as “induced; also recorded: returned to the normal level by 16 hours”. Also, in the assay with human islets [1] (FIG. 16B), the “IL-8 mRNA (% ACTB) in human islets” value was “induced”. Also, in the assay on human islets [1] (FIG. 16C), the “endogenous IL-1B mRNA (% ACTB) in human islets” value is recorded as “induced”. Moreover, the “endogenous TNF mRNA (% ACTB) in human islets” value in the assay on human islets [1] (FIG. 16D) is “induced”.
In the case of Etanercept, in the assay with human islets [2], the “TNF-α induced up regulation of PUMA mRNA (% ACTB)” value was “prevented TNF-α induced up regulation”, the “TNF-α induced up regulation of IL-8 mRNA (% ACTB)” value is listed as “prevented TNF-α induced up regulation” and the “TNF-α induced up regulation of endogenous TNF mRNA (% ACTB)” value is on record as “prevented TNF-α induced up regulation”. In addition, in assay [3], the HbA1C levels result is “lowering HbA1C levels” and the endogenous insulin production entry is reported as “increased levels of endogenous insulin production”.
In the case of `Cc1ccc(S(=O)(=O)/C=C/C#N)cc1` [BAY11-7082], the “PUMA expression induced by the combination of TNF-α and IFNγ (western blot)” value in the assay with human islets [4] (10 μM pre-incubation 1 hour, TNF-α 50 ng/ml + IFNγ 1000 U/ml, FIG. 2C) is recorded as “did not inhibit PUMA expression”.
Consider `Cc1ccc(NC(=O)c2ccc(CN3CCN(C)CC3)cc2)cc1Nc1nccc(-c2cccnc2)n1` [Imatinib], for which the “protection of islets from combined cytokines” value with islets is reported as “protect islets from combined cytokines”. Moreover, in the assay with NOD mice, the “spontaneous onset of diabetes” value was “prevents the spontaneous onset of diabetes”. In the assay on human islets [2], the “TNF-α induced up regulation of PUMA mRNA (% ACTB)” value is listed as “reduced the up regulation”, the “TNF-α induced up regulation of IL-8 mRNA (% ACTB)” value is “reduced the up regulation” and the “TNF-α induced up regulation of endogenous TNF mRNA (% ACTB)” value is on record as “reduced the up regulation”.

B1: IFN-γ: recombinant human IFNγ, R&D Systems; cytokine stimulus (protein, UniProt P01579 24-161, looked up)
Interferon gamma: QDPYVKEAENLKKYFNAGHSDVADNGTLFLGILKNWKEESDRKIMQSQIVSFYFKLFKNFKDDQSIQKSVETIKEDMNVKFFNSNKKKRDDFEKLTNYSVTDLNVQRKAIHELIQVMAELSPAAKTGKRKRSQMLFRG
For B1, the “glucose-induced preproinsulin precursor mRNA synthesis” value in the assay on human islets [5] is “did not impair”. The “PUMA protein expression (western blot)” value in the assay with human islets [4] (TNF-α 50 ng/mL and/or IFN-γ 1000 U/mL, FIG. 2A) is given as “but not by IFN-γ (1000 U/mL) alone”. In addition, the “PUMA mRNA expression in human islets” value with human islets [6] (4 hours, FIG. 8K) is reported as “did not induce PUMA”. Moreover, in the assay on human islets [6] (FIG. 8C, 8F, 8L), the “IL-8 mRNA expression in human islets” value is recorded as “did not induce IL-8 expression”.
